{
  "source": "patent US20040071967A1",
  "about": "“Microcapsule containing phase-change material and nucleating agent” (priority 2000, published 2004)",
  "type_in_all_cases": "physicochemical",
  "key": {"[1]": {"assay": "Critical aggregation concentration (solubility limit or critical micelle concentration)", "experimental": "(§1) The critical aggregation concentrations (solubility limit or critical micelle concentration) were determined by intersection of the linear portion of a surface tension/In concentration curve with the limiting surface tension as is described in many textbooks. The limiting surface tensions at 0.1 and 20 bubbles/second (b/s) represent the lowest surface tensions in water which can be achieved at the given surface creation rate for a given surfactant regardless of the amount of surfactant used. These values give information about the relative ability to a surfactant to reduce surface defects under near-equilibrium condition (0.1 b/s) through very dynamic conditions (20 b/s). Lower surface tensions would allow the elimination of defects upon application of a formulation onto lower energy surfaces."}, "[2]": {"assay": "Ross-Miles foam test based upon ASTM D 1173-53, 0.1 wt % solution", "conditions": "Tables 5 and 6; for RM Foam initial: initial foam height", "experimental": "The foam height is measured at the completion of the addition (“Initial Foam Height”) and the time required for the foam to dissipate is recorded (“Time to 0 Foam”). This test provides a comparison between the foaming characteristics of various surfactant solutions. In general, in coatings, inks, and agricultural formulations, foam is undesirable because is complicates handling and can lead to coating and print defects, and to inefficient application of agricultural materials."}, "[3]": {"assay": "Dynamic surface tension of aqueous solutions, maximum bubble pressure method", "conditions": "for γ (0.1% solution) 1 b/s / γ (0.1% solution) 6 b/s / limiting γ 0.1 b/s / limiting γ 20 b/s / pC20: Tables 5 and 6; for limiting γ 0.1 b/s / limiting γ 20 b/s: lowest surface tension in water; for pC20: negative logarithm of molar concentration giving 52.1 dyne/cm at 0.1 b/s", "experimental": "as §1, with “In practical terms, high bubble rates correspond to high printing speeds in lithographic printing, high spray or roller velocities in coating applications, and rapid application rates for agricultural products. […] This value is a measure of the efficiency of a surfactant. […] The critical” for “The critical”"}},
  "note": "Like-named read-outs stand apart in the source and are kept apart here.",
  "data": [
    {"substance": "10 mole EO/2 mole PO block derivative of 2,4,7,9-tetramethyl-5-decyne-4,7-diol [Example 5]", "values": [
      {"measurement": "Sol Limit", "setting": "[1]; water, Tables 5 and 6, unit printed only in Table 7 footnote", "value": "(0.78) wt %"},
      {"measurement": "RM Foam (foam height remaining)", "setting": "[2]; cm after 5 minutes", "value": "(1.3) cm"},
      {"measurement": "RM Foam initial", "setting": "[2]", "value": 2.1, "unit": "cm"},
      {"measurement": "γ (0.1% solution) 1 b/s", "setting": "[3]; 1 b/s", "value": 42.0, "unit": "dyne/cm"},
      {"measurement": "γ (0.1% solution) 6 b/s", "setting": "[3]; 6 b/s", "value": 44.3, "unit": "dyne/cm"},
      {"measurement": "Dynamic Surface Tension", "setting": "[3]; 0.1 wt % in distilled water, 0.1 b/s", "value": 40.5, "unit": "dyne/cm"},
      {"measurement": "Dynamic Surface Tension", "setting": "[3]; 0.1 wt % in distilled water, 1 b/s", "value": 42.0, "unit": "dyne/cm"},
      {"measurement": "Dynamic Surface Tension", "setting": "[3]; 0.1 wt % in distilled water, 6 b/s", "value": 44.3, "unit": "dyne/cm"},
      {"measurement": "Dynamic Surface Tension", "setting": "[3]; 0.1 wt % in distilled water, 15 b/s", "value": 47.1, "unit": "dyne/cm"},
      {"measurement": "Dynamic Surface Tension", "setting": "[3]; 0.1 wt % in distilled water, 20 b/s", "value": 48.1, "unit": "dyne/cm"},
      {"measurement": "Dynamic Surface Tension", "setting": "[3]; 0.5 wt % in distilled water, 0.1 b/s", "value": 32.4, "unit": "dyne/cm"},
      {"measurement": "Dynamic Surface Tension", "setting": "[3]; 0.5 wt % in distilled water, 1 b/s", "value": 33.6, "unit": "dyne/cm"},
      {"measurement": "Dynamic Surface Tension", "setting": "[3]; 0.5 wt % in distilled water, 6 b/s", "value": 35.1, "unit": "dyne/cm"},
      {"measurement": "Dynamic Surface Tension", "setting": "[3]; 0.5 wt % in distilled water, 15 b/s", "value": 36.6, "unit": "dyne/cm"},
      {"measurement": "Dynamic Surface Tension", "setting": "[3]; 0.5 wt % in distilled water, 20 b/s", "value": 37.2, "unit": "dyne/cm"},
      {"measurement": "Dynamic Surface Tension", "setting": "[3]; 1.0 wt % in distilled water, 0.1 b/s", "value": 29.8, "unit": "dyne/cm"},
      {"measurement": "Dynamic Surface Tension", "setting": "[3]; 1.0 wt % in distilled water, 1 b/s", "value": 30.5, "unit": "dyne/cm"},
      {"measurement": "Dynamic Surface Tension", "setting": "[3]; 1.0 wt % in distilled water, 6 b/s", "value": 32.1, "unit": "dyne/cm"},
      {"measurement": "Dynamic Surface Tension", "setting": "[3]; 1.0 wt % in distilled water, 15 b/s", "value": 33.0, "unit": "dyne/cm"},
      {"measurement": "Dynamic Surface Tension", "setting": "[3]; 1.0 wt % in distilled water, 20 b/s", "value": 33.7, "unit": "dyne/cm"},
      {"measurement": "limiting γ 0.1 b/s", "setting": "[3]; 0.1 b/s", "value": 29.8, "unit": "dyne/cm"},
      {"measurement": "limiting γ 20 b/s", "setting": "[3]; 20 b/s", "value": 33.7, "unit": "dyne/cm"},
      {"measurement": "pC20", "setting": "[3]", "value": 4.05}
    ]},
    {"substance": "3.5 mole ethoxylate of 2,4,7,9-tetramethyl-5-decyne-4,7-diol capped with 2 moles of propylene oxide [Example 3]", "values": [
      {"measurement": "Sol Limit", "setting": "[1]", "value": 0.21, "unit": "wt %"},
      {"measurement": "RM Foam initial", "setting": "[2]", "value": 1.0, "unit": "cm"},
      {"measurement": "RM Foam (t to 0)", "setting": "[2]; time to 0 foam", "value": "(10 s)"},
      {"measurement": "γ (0.1% solution) 1 b/s", "setting": "[3]; 1 b/s", "value": 33.6, "unit": "dyne/cm"},
      {"measurement": "γ (0.1% solution) 6 b/s", "setting": "[3]; 6 b/s", "value": 36.6, "unit": "dyne/cm"},
      {"measurement": "limiting γ 0.1 b/s", "setting": "[3]; 0.1 b/s", "value": 29.3, "unit": "dyne/cm"},
      {"measurement": "limiting γ 20 b/s", "setting": "[3]; 20 b/s", "value": 31.4, "unit": "dyne/cm"},
      {"measurement": "pC20", "setting": "[3]", "value": 4.07}
    ]}
  ]
}
